The assay concerns the target T1, indoleamine 2, 3-dioxygenase (IDO1) (Homo sapiens, UniProt P14902).
T1 construct: human peripheral blood mononuclear cells (PBMC) (PB003F; host or cells: human PBMC stimulated with IFN-gamma and LPS
Briefly: PBMC IDO1 assay (kynurenine detection via mass spectrometry). Format: cell-based. The settings on record: human PBMC stimulated with IFN-γ and LPS, 2 days, kynurenine by mass spectrometry; read-out: IDO1 PBMC pIC50 (converted). Summed up: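 Kynurenine output, read by RapidFire mass spectrometry as a ratio to internal standard, reflected IDO1 activity in human PBMCs induced with 100 ng/ml IFN-γ plus 50 ng/ml LPS and dosed with compound (11 points, 3-fold) over 2 days. Cytotoxicity was tracked by CellTiter-Glo; XC50 values came from Hill-slope fits.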
T1 sequence (P14902 whole entry): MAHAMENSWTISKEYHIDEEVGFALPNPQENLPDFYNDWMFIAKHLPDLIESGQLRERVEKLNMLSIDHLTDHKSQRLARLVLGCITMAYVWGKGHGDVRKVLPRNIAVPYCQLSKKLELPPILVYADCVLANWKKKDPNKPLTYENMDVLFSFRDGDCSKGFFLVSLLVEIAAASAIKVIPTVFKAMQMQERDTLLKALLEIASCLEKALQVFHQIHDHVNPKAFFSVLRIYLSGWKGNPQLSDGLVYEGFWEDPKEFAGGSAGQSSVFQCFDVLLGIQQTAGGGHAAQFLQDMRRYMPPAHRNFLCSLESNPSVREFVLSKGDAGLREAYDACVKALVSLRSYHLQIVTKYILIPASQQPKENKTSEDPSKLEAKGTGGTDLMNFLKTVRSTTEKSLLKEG
For the molecule `Cc1ccc(C(=O)NC(CC2CCN(C(=O)OC(C)(C)C)CC2)c2ccccc2)c(F)c1` (stereo not drawn) [Example 218, tert-butyl 4-(2-(2-fluoro-4-methylbenzamido)-2-phenylethyl)piperidine-1-carboxylate], the IC50 was 0.501 µM. The value for `CC(C)(C)OC(=O)N1CCC(CC(NC(=O)c2ccccc2F)c2ccccc2)CC1` (stereo not drawn) [Example 219, tert-butyl 4-(2-(2-fluorobenzamido)-2-phenylethyl)piperidine-1-carboxylate] was 0.501 µM; that for `CC(C)(C)OC(=O)N1CCC(CC(NC(=O)c2ccc[nH]2)c2ccccc2)CC1` (stereo not drawn) [Example 220, tert-butyl 4-(2-phenyl-2-(1H-pyrrole-2-carboxamido)ethyl)piperidine-1-carboxylate] was 0.501 µM; that for `CC(C)(C)OC(=O)N1CCC(CC(NC(=O)c2ccc(F)cc2)c2nnc(C3CC3)o2)CC1` (stereo not drawn) [Example 221, tert-butyl 4-(2-(5-cyclopropyl-1,3,4-oxadiazol-2-yl)-2-(4-fluorobenzamido)ethyl)piperidine-1-carboxylate] was 0.501 µM.

For the molecule `CC(=O)N1CCC(CC(NC(=O)c2ccc(Cl)cc2)c2ccccc2)CC1` (stereo not drawn) [Example 222, N-(2-(1-acetylpiperidin-4-yl)-1-phenylethyl)-4-chlorobenzamide], the IC50 was 0.501 µM. The value for `CC(C)c1nnc(C(CC2CCN(C(=O)OC(C)(C)C)CC2)NC(=O)c2ccc(F)cc2)o1` (stereo not drawn) [Example 223, tert-butyl 4-(2-(4-fluorobenzamido)-2-(5-isopropyl-1,3,4-oxadiazol-2-yl)ethyl)piperidine-1-carboxylate] was 0.501 µM; that for `CC(C)(C)OC(=O)N1CCC(CC(NC(=O)c2ccc(Cl)s2)c2n[nH]c(=O)o2)CC1` (stereo not drawn) [Example 224, tert-butyl 4-(2-(5-chlorothiophene-2-carboxamido)-2-(5-oxo-4,5-dihydro-1,3,4-oxadiazol-2-yl)ethyl)piperidine-1-carboxylate] was 0.501 µM; that for `CC(C)CNCC(CC1CCN(C(=O)OC(C)(C)C)CC1)NC(=O)c1ccc(F)cc1` (stereo not drawn) [Example 225, tert-butyl 4-(2-(4-fluorobenzamido)-3-(isobutylamino)propyl)piperidine-1-carboxylate] was 0.501 µM. As to `CC(C)(C)OC(=O)N1CCC(CC(NC(=O)c2ccc(F)cc2)c2ccccn2)CC1` (stereo not drawn) [Example 226, tert-butyl 4-(2-(4-fluorobenzamido)-2-(pyridin-2-yl)ethyl)piperidine-1-carboxylate], the IC50 is 0.631 µM. As for `CC(C)Cc1ccc(C(=O)NC(CC2CCN(C(=O)OC(C)(C)C)CC2)c2ccccc2)s1` (stereo not drawn) [Example 227, tert-butyl 4-(2-(5-isobutylthiophene-2-carboxamido)-2-phenylethyl)piperidine-1-carboxylate], the IC50 is 0.631 µM. The value for `CC(C)(C)OC(=O)N1CCC(CC(NC(=O)c2ccco2)c2ccccc2)CC1` (stereo not drawn) [Example 228, tert-butyl 4-(2-(furan-2-carboxamido)-2-phenylethyl)piperidine-1-carboxylate] was 0.631 µM.

`CC(C)(C)OC(=O)N1CCC(C[C@H](Nc2ccnc(Cl)n2)C2CC2)CC1` [Example 229, (S)-tert-butyl 4-(2-((2-chloropyrimidin-4-yl)amino)-2-cyclopropylethyl)piperidine-1-carboxylate]: the IC50 is 0.631 µM. The value for `O=C(NC(CC1CCN(C(=O)N2CCCCC2)CC1)c1ccccc1)c1ccc(Cl)cc1` (stereo not drawn) [Example 230, 4-chloro-N-(1-phenyl-2-(1-(piperidine-1-carbonyl)piperidin-4-yl)ethyl)benzamide] was 0.631 µM.

Turning to `CCNCC[C@H](CC1CCN(C(=O)OC(C)(C)C)CC1)NC(=O)c1ccc(Cl)s1` [Example 231, (S)-tert-butyl 4-(2-(5-chlorothiophene-2-carboxamido)-4-(ethylamino)butyl)piperidine-1-carboxylate], the IC50 was 0.631 µM.

As to `CC(C)(C)OC(=O)N1CCC(CC(NC(=O)C2CCCC2)c2ccccc2)CC1` (stereo not drawn) [Example 232, tert-butyl 4-(2-(cyclopentanecarboxamido)-2-phenylethyl)piperidine-1-carboxylate], the IC50 was 0.794 µM. The value for `CC1CCC(C(=O)NC(CC2CCN(C(=O)OC(C)(C)C)CC2)c2ccccc2)CC1` (stereo not drawn) [Example 233, tert-butyl 4-(2-(4-methylcyclohexanecarboxamido)-2-phenylethyl)piperidine-1-carboxylate] was 0.794 µM; that for `CC(C)(C)OC(=O)N1CCC(C[C@@H](NC(=O)c2ccc(Cl)cc2)c2ccccc2)CC1` [Example 234, (R)-tert-butyl 4-(2-(4-chlorobenzamido)-2-phenylethyl)piperidine-1-carboxylate] was 0.794 µM; that for `COCCNCC(CC1CCN(C(=O)OC(C)(C)C)CC1)NC(=O)c1ccc(F)cc1` (stereo not drawn) [Example 235, tert-butyl 4-(2-(4-fluorobenzamido)-3-((2-methoxyethyl)amino)propyl)piperidine-1-carboxylate] was 0.794 µM.

The values are drawn from patent US20210078988A1, “MODULATORS OF INDOLEAMINE 2,3-DIOXYGENASE” (GLAXOSMITHKLINE INTELLECTUAL PROPERTY DEVELOPMENT LIMITED, priority 2017, published 2021).
